Data reported in PubChem BioAssay (NCI).
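Tested at 5 concentrations; 48 h exposure; 96-well plates; endpoints linearly interpolated, else capped at highest concentration. TGI denotes the concentration required for complete inhibition of growth.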

Key:
Assay in all cases: inhibition of tumour cell growth, NCI panel, 48 h
MOLT-4 leukemia = test system: MOLT-4 leukemia
ACHN renal = test system: ACHN renal
HT29 colon = test system: HT29 colon
MALME-3M melanoma = test system: MALME-3M melanoma
IGROV1 ovarian = test system: IGROV1 ovarian
SF-539 CNS = test system: SF-539 CNS
TK-10 renal = test system: TK-10 renal
NCI-H460 lung = test system: NCI-H460 lung
KM20L2 colon = test system: KM20L2 colon
OVCAR-5 ovarian = test system: OVCAR-5 ovarian
UO-31 renal = test system: UO-31 renal
K-562 leukemia = test system: K-562 leukemia
OVCAR-8 ovarian = test system: OVCAR-8 ovarian
A549 NSCLC = test system: A549 NSCLC
DMS 114 small cell lung = test system: DMS 114 small cell lung
RPMI-8226 leukemia = test system: RPMI-8226 leukemia
UACC-257 melanoma = test system: UACC-257 melanoma
LXFL 529 NSCLC = test system: LXFL 529 NSCLC
HOP-18 NSCLC = test system: HOP-18 NSCLC
SNB-75 CNS = test system: SNB-75 CNS
OVCAR-4 ovarian = test system: OVCAR-4 ovarian
SR leukemia = test system: SR leukemia
HCT-15 colon = test system: HCT-15 colon
COLO 205 colon = test system: COLO 205 colon
SN12C renal = test system: SN12C renal
U251 CNS = test system: U251 CNS
CCRF-CEM leukemia = test system: CCRF-CEM leukemia
SF-268 CNS = test system: SF-268 CNS
EKVX NSCLC = test system: EKVX NSCLC
HOP-62 NSCLC = test system: HOP-62 NSCLC
SK-MEL-2 melanoma = test system: SK-MEL-2 melanoma
DMS 273 small cell lung = test system: DMS 273 small cell lung
KM12 colon = test system: KM12 colon
DLD-1 colon = test system: DLD-1 colon
CAKI-1 renal = test system: CAKI-1 renal
UACC-62 melanoma = test system: UACC-62 melanoma
HCT-116 colon = test system: HCT-116 colon
NCI-H23 lung = test system: NCI-H23 lung
RXF 393 renal = test system: RXF 393 renal
SNB-19 CNS = test system: SNB-19 CNS
HL-60(TB) leukemia = test system: HL-60(TB) leukemia
SK-MEL-5 melanoma = test system: SK-MEL-5 melanoma
SK-MEL-28 melanoma = test system: SK-MEL-28 melanoma
OVCAR-3 ovarian = test system: OVCAR-3 ovarian
XF 498 CNS = test system: XF 498 CNS
SNB-78 CNS = test system: SNB-78 CNS
M14 melanoma = test system: M14 melanoma
786-0 renal = test system: 786-0 renal
A498 renal = test system: A498 renal
RXF-631 renal = test system: RXF-631 renal
SK-OV-3 ovarian = test system: SK-OV-3 ovarian
SF-295 CNS = test system: SF-295 CNS
HCC-2998 colon = test system: HCC-2998 colon
LOX IMVI melanoma = test system: LOX IMVI melanoma
HOP-92 NSCLC = test system: HOP-92 NSCLC
NCI-H226 lung = test system: NCI-H226 lung
NCI-H522 lung = test system: NCI-H522 lung
M19-MEL melanoma = test system: M19-MEL melanoma
SW-620 colon = test system: SW-620 colon

SMILES: COC(=O)C(=O)C(C(=O)C=C(C)C)C(=O)C(=O)Nc1cc(C(F)(F)F)ccc1Cl (stereo unspecified)
- TGI (MOLT-4 leukemia): > 100 µM
- TGI (ACHN renal): > 100 µM
- TGI (HT29 colon): > 100 µM
- TGI (MALME-3M melanoma): > 100 µM
- TGI (IGROV1 ovarian): > 100 µM
- TGI (SF-539 CNS): > 100 µM
- TGI (TK-10 renal): > 100 µM
- TGI (NCI-H460 lung): > 100 µM
- TGI (KM20L2 colon): > 100 µM
- TGI (OVCAR-5 ovarian): > 100 µM
- TGI (UO-31 renal): > 100 µM
- TGI (K-562 leukemia): > 100 µM
- TGI (OVCAR-8 ovarian): > 100 µM
- TGI (A549 NSCLC): > 100 µM
- TGI (DMS 114 small cell lung): > 100 µM
- TGI (RPMI-8226 leukemia): 67 µM
- TGI (UACC-257 melanoma): > 100 µM
- TGI (LXFL 529 NSCLC): > 100 µM
- TGI (HOP-18 NSCLC): > 100 µM
- TGI (SNB-75 CNS): > 100 µM
- TGI (OVCAR-4 ovarian): > 100 µM
- TGI (SR leukemia): 39.9 µM
- TGI (HCT-15 colon): > 100 µM
- TGI (COLO 205 colon): > 100 µM
- TGI (SN12C renal): > 100 µM
- TGI (U251 CNS): > 100 µM
- TGI (CCRF-CEM leukemia): 71.2 µM
- TGI (SF-268 CNS): > 100 µM
- TGI (EKVX NSCLC): > 100 µM
- TGI (HOP-62 NSCLC): > 100 µM
- TGI (SK-MEL-2 melanoma): > 100 µM
- TGI (DMS 273 small cell lung): > 100 µM
- TGI (KM12 colon): > 100 µM
- TGI (DLD-1 colon): > 100 µM
- TGI (CAKI-1 renal): > 100 µM
- TGI (UACC-62 melanoma): > 100 µM
- TGI (HCT-116 colon): > 100 µM
- TGI (NCI-H23 lung): > 100 µM
- TGI (RXF 393 renal): > 100 µM
- TGI (SNB-19 CNS): > 100 µM
- TGI (HL-60(TB) leukemia): > 100 µM
- TGI (SK-MEL-5 melanoma): > 100 µM
- TGI (SK-MEL-28 melanoma): > 100 µM
- TGI (OVCAR-3 ovarian): > 100 µM
- TGI (XF 498 CNS): > 100 µM
- TGI (SNB-78 CNS): > 100 µM
- TGI (M14 melanoma): > 100 µM
- TGI (786-0 renal): > 100 µM
- TGI (A498 renal): > 100 µM
- TGI (RXF-631 renal): > 100 µM
- TGI (SK-OV-3 ovarian): > 100 µM
- TGI (SF-295 CNS): > 100 µM
- TGI (HCC-2998 colon): > 100 µM
- TGI (LOX IMVI melanoma): > 100 µM
- TGI (HOP-92 NSCLC): > 100 µM
- TGI (NCI-H226 lung): > 100 µM
- TGI (NCI-H522 lung): > 100 µM

SMILES: N#CC1(Cc2ccc(N)cc2)c2ccccc2C=CN1C(=O)c1ccccc1 (stereo unspecified)
- TGI (MOLT-4 leukemia): > 100 µM
- TGI (ACHN renal): > 100 µM
- TGI (HT29 colon): > 100 µM
- TGI (MALME-3M melanoma): > 100 µM
- TGI (IGROV1 ovarian): > 100 µM
- TGI (SF-539 CNS): > 100 µM
- TGI (TK-10 renal): > 100 µM
- TGI (KM20L2 colon): > 100 µM
- TGI (OVCAR-5 ovarian): > 100 µM
- TGI (UO-31 renal): 84.2 µM
- TGI (K-562 leukemia): > 100 µM
- TGI (OVCAR-8 ovarian): > 100 µM
- TGI (M19-MEL melanoma): > 100 µM
- TGI (A549 NSCLC): > 100 µM
- TGI (DMS 114 small cell lung): > 100 µM
- TGI (RPMI-8226 leukemia): > 100 µM
- TGI (UACC-257 melanoma): > 100 µM
- TGI (LXFL 529 NSCLC): > 100 µM
- TGI (HOP-18 NSCLC): > 100 µM
- TGI (SNB-75 CNS): > 100 µM
- TGI (SR leukemia): 94.3 µM
- TGI (COLO 205 colon): 85.7 µM
- TGI (SN12C renal): > 100 µM
- TGI (U251 CNS): > 100 µM
- TGI (CCRF-CEM leukemia): > 100 µM
- TGI (SF-268 CNS): > 100 µM
- TGI (EKVX NSCLC): > 100 µM
- TGI (HOP-62 NSCLC): > 100 µM
- TGI (SK-MEL-2 melanoma): > 100 µM
- TGI (DMS 273 small cell lung): > 100 µM
- TGI (KM12 colon): > 100 µM
- TGI (DLD-1 colon): > 100 µM
- TGI (UACC-62 melanoma): > 100 µM
- TGI (HCT-116 colon): > 100 µM
- TGI (NCI-H23 lung): > 100 µM
- TGI (RXF 393 renal): > 100 µM
- TGI (SNB-19 CNS): > 100 µM
- TGI (HL-60(TB) leukemia): 44 µM
- TGI (SK-MEL-5 melanoma): 47.2 µM
- TGI (SK-MEL-28 melanoma): > 100 µM
- TGI (OVCAR-3 ovarian): > 100 µM
- TGI (XF 498 CNS): > 100 µM
- TGI (SNB-78 CNS): > 100 µM
- TGI (M14 melanoma): > 100 µM
- TGI (786-0 renal): > 100 µM
- TGI (A498 renal): > 100 µM
- TGI (SK-OV-3 ovarian): > 100 µM
- TGI (SW-620 colon): > 100 µM
- TGI (SF-295 CNS): > 100 µM
- TGI (HCC-2998 colon): > 100 µM
- TGI (LOX IMVI melanoma): > 100 µM
- TGI (HOP-92 NSCLC): > 100 µM
- TGI (NCI-H226 lung): > 100 µM
- TGI (NCI-H522 lung): > 100 µM
